Key:
[1] = test system: photoreceptor cells; assay type: in vivo, Brown Norway rats
Experimental: Methods. Retinal detachments were created in the eyes of Brown Norway rats by injecting 10% hyaluronic acid into the subretinal space using a transvitreal approach. FK506 (tacrolimus) (5 mg/kg/day) diluted in PBS was administered by gastric gavage one day prior to the induction of retinal detachment, on the day of the induction, and for the two following days (n=6). Control animals received the same volume of PBS (0.5 cc) by gastric gavage one day prior to the induction of retinal detachment, on the day of the induction, and for the two following days (n=3). […] All eyes were enucleated 72 hours after retinal detachment induction and embedded in paraffin. Fourteen micrometer sections were subsequently obtained. DNA fragmentation was examined using terminal dUTP-biotin nick end-labeling (TUNEL). A masked observer counted TUNEL-positive cells and obtained an average from three adjacent standardized fields in two serial sections.

[2] = molecular target: T1, caspase 7 (Homo sapiens, UniProt P55210); details: cited from earlier work
T1 sequence (P55210 24-198 limits assumed): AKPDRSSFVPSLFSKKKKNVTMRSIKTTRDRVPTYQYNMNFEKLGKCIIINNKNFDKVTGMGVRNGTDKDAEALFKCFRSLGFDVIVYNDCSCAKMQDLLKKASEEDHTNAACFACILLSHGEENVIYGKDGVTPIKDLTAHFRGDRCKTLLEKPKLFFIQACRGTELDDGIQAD
T1 sequence (P55210 207-303 limits assumed): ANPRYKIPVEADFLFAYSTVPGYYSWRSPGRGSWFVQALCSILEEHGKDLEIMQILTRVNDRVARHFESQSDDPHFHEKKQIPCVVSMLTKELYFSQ

[3] = molecular target: T2, caspase 3 (Homo sapiens, UniProt P42574); details: cited from earlier work
T2 sequence (P42574 29-175 limits assumed): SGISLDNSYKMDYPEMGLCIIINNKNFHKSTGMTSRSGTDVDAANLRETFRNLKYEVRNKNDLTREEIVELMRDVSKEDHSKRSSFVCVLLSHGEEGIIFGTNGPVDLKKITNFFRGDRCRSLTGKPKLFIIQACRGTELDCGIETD
T2 sequence (P42574 176-277 limits assumed): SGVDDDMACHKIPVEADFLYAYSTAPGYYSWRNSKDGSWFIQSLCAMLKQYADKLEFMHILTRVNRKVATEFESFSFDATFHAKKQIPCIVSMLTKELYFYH

[4] = molecular target: T3, caspase 1 (Homo sapiens, UniProt P29466); details: cited from earlier work
T3 sequence (P29466 120-297 limits assumed): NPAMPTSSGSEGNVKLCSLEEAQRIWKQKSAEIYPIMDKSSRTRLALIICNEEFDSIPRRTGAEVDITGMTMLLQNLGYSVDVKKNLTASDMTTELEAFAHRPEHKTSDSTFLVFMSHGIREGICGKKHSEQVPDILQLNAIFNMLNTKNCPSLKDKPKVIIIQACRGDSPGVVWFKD
T3 sequence (P29466 317-404 limits assumed): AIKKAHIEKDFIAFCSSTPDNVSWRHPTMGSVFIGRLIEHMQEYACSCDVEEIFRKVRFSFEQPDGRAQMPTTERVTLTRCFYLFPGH

[5] = molecular target: T4, caspase 4 (Homo sapiens, UniProt P49662); details: cited from earlier work
T4 sequence (P49662 81-270 limits assumed): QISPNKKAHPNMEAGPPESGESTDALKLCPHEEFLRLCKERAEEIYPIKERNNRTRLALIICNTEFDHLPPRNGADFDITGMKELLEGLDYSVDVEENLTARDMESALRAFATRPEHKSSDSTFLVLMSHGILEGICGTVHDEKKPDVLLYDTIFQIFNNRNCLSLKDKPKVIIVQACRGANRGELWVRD
T4 sequence (P49662 290-377 limits assumed): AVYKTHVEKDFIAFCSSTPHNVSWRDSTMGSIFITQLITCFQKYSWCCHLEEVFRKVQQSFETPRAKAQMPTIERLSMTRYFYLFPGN

[6] = test system: photoreceptor cells; test: Caspase inhibitor injected into region of retinal detachment, TUNEL staining (Example 2); assay type: in vivo, Brown-Norway rats; details: 25 μl of 0.2, 2 or 20 mM inhibitor in DMSO into region of detachment; 72 hours; relative to untreated eyes
Experimental: The caspase inhibitor, Z-Val-Ala-Asp-fluoromethylketone is dissolved in dimethyl sulfoxide (DMSO) to give the final concentrations of 0.2 mM, 2 mM, and 20 mM. After creating the retinotomy with the subretinal injector, a small amount of Healon® sodium hyaluronate is injected in the subretinal space so as to elevate the retina. After retinal elevation, a Hamilton syringe with a 33 gauge needle is introduced through the retinotomy site, and 25 μl of inhibitor is injected into the region of detachment. About 25 minutes later, Healon® sodium hyaluronate is injected, via the same retinotomy site, to maintain the retinal detachment. Healon® sodium hyaluronate is injected until resistance is detected.
Only the right eyes of rats are used in evaluating the role of the Z-VAD-FMK inhibitor. The left eyes serve as the controls. Five animals are used for each concentration of inhibitor (namely, no inhibitor, 0.2 mM inhibitor, 2 mM inhibitor, and 20 mM inhibitor). For the no inhibitor control, 25 μl of DMSO is injected into the region of detachment followed by Healon® sodium hyaluronate.
After 72 hours, the eyes are enucleated and the rats euthanized. The enucleated eyes are paraffin embedded as described in Example 1. Then, 6 μm sections from the posterior segments are analyzed by TUNEL staining as described in Example 1.

[7] = test system: calpain-mediated cleavage of calcineurin; test: ALLM treatment in experimental retinal detachment, Western blot of calcineurin cleavage (Example 4, Experiment #2); assay type: in vivo, Brown Norway rats
Excerpt: The following experiments determine that calcineurin is cleaved after retinal detachment and that pharmacologic inhibition of calpain will prevent this activation. In particular, retinas of rats with experimental retinal detachment will be examined for biochemical evidence of calcineurin activation. These experiments also determine that calcineurin cleavage is mediated by the calcium-dependent enzyme, calpain. […] Finally, they determine that calcineurin inhibitors like FK506 have a neuroprotective effect on photoreceptor cells death.
One day prior to surgical induction, animals are started on a treatment of ALLM (20 mg/kg/day, intraperitoneal administration), a calpain inhibitor, or vehicle control, and administration continues throughout the study. For this experiment, the animals are followed for three or five days after retinal detachment. At the end of this period, animals are sacrificed and their eyes are removed for either protein isolation or immunohistochemistry. Fellow eyes are used as controls. Western blot analysis is used to determine levels of retinal calcineurin and calcineurin cleavage products. Six animals per group are used.
Retinal Detachment Model. […]

C=CC[C@@H]1/C=C(\C)C[C@H](C)C[C@H](OC)[C@H]2O[C@@](O)(C(=O)C(=O)N3CCCC[C@H]3C(=O)O[C@H](/C(C)=C/[C@@H]3CC[C@@H](O)[C@H](OC)C3)[C@H](C)[C@@H](O)CC1=O)[C@H](C)C[C@@H]2OC [FK506, FK506 (tacrolimus)]
TUNEL-positive cells (mean±SD) ([1]; FK506 5 mg/kg/day by gastric gavage, from one day prior to detachment, eyes enucleated 72 hours after retinal detachment, n=6): 130.13±54.3
morphological signs of toxicity in the eyes ([1]; rat, in vivo, 5 mg/kg/day): no morphological signs of toxicity
reduction in the mean number of TUNEL-positive cells ([1]; treated group vs PBS control, 72 hours after detachment, p<0.05): 35%

Ac-Tyr-Val-Ala-Asp-aldehyde (SEQ ID NO: 7)
Ki [2]: ≥ 50000 nM
Ki [3]: ≥ 50000 nM
Ki [4]: 10 nM
Ki [5]: 10 nM

Z-Val-Ala-Asp-fluoromethylketone
inhibition of caspase 7 [2]: inhibits
inhibition of caspase 3 [3]: inhibits
inhibition of caspase 1 [4]: inhibits
inhibition of caspase 4 [5]: inhibits
TUNEL-positive photoreceptor cells in the region of retinal detachment [6]: fewer photoreceptor cells in the region of retinal detachment that stain TUNEL-positive

Ac-Leu-Leu-Met-H (aldehyde) [ALLM]
levels of retinal calcineurin and calcineurin cleavage products ([7]; ALLM 20 mg/kg/day intraperitoneal, three or five days after retinal detachment): inhibition of the calpain-mediated cleavage pathway
photoreceptor cell death ([7]; treatment with ALLM in experimental retinal detachment): protect photoreceptor cells from death
